From US20210255184A1, “Biosensor Device and Methods” (The New Zealand Institute for Plant and Food Research …, priority 2018, published 2021)

Target: T1, Or22a (Drosophila melanogaster, UniProt P81909)
T1 construct: his-tag; made in house; host or cells: baculovirus-infected Sf9 cells
T1 sequence (P81909 1-397): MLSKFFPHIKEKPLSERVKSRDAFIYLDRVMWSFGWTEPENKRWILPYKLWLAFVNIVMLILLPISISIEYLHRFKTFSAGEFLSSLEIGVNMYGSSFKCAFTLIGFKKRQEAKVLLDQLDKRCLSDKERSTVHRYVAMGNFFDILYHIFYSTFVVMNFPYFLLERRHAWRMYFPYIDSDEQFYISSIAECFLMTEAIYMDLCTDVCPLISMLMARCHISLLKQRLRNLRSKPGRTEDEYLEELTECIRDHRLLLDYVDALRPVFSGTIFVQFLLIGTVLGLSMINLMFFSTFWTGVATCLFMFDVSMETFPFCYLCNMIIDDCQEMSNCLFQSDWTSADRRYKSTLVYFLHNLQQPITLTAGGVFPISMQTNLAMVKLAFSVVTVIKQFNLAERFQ
Assay: EIS sensor, Or22a liposomes on gold electrode
Type: biochemical
Method: Prior to their use, liposomes were defrosted on ice and then destabilized by incubating with 0.2% CHAPS for 15 min at room temperature. Then 200 μg of purified odorant receptor^28 was added to 1 mg of liposomes and rotated at 10 rpm for 1 h at room temperature. Excess detergent was removed by four additions of 25 mg of Bio-Beads SM-2 (Bio-Rad, USA) and incubation at 4° C. for 30 min, 2 h, overnight and a further 2 h respectively. The Bio-Beads were removed after each incubation period. The OrX or OrX/Orco integrated liposomes were pelleted by centrifugation at 100,000 g for 1 h, and were resuspended in 500 μL of rehydration buffer. Integration of OrXs and Orco into liposomes was assessed by density gradient ultracentrifugation (DGU) using Accudenz (Accurate Chemical & Scientific Corporation, USA). The integrated liposomes were brought to 40% Accudenz by the addition of an equal volume of 80% Accudenz solution, placed at the bottom of an ultra-centrifugation tube, and overlaid with 30% Accudenz solution, and DGU buffer (25 mM HEPES pH 7.5, 100 mM NaCl, 10% glycerol). The sample was then centrifuged at 100,000 g for 4 h at 4° C. Liposomes will float to the top of the gradient after Accudenz DGU due to their low density.
2 mM MHA was prepared by dissolving 1.36 μl of MHA in 5 ml ethanol (AR grade). The cleaned electrodes were immersed into MHA solution and incubated overnight. The next day, all the electrodes were washed with ethanol and deionised water thoroughly in order to remove the unreacted acid. A 2:1 mol:mol ratio of EDC:NHS (100 mM EDC, 50 mM NHS) was prepared in 2 ml PBS (pH=6.5) solution. Then, the electrodes were covered in 100 μl of this solution at 28° C. for an hour to activate the carboxylic (COOH) groups of the MHA.
PBS solution was prepared by immersing one tablet of PBS in 200 ml of milli-Q water (according to manufacturers instructions) and filtered using 0.2-μm syringe filter. The pH of the prepared buffer solution was measured with a pH meter. OrX liposomes or OrX/Orco liposomes were diluted 100 fold in PBS buffer solution (pH=7.4) and the COOH-activated electrodes were incubated in that buffer solution at room temperature for one hour. Then, the electrodes were washed extensively with PBS buffer solution to wash out any unbound liposomes.
PBS (pH=7.4) was used as an electrolyte to conduct electrochemical measurements. PBS buffer was degassed for about 30 minutes prior to electrochemical measurements. Odorant solutions of concentration ranging from 1 aM to 1 μM were prepared by sequential dilution in PBS solution containing 1% DMSO. OR immobilized electrodes were incubated in relevant odorant solution for ˜30 minutes each and washed gently with PBS before EIS measurements.
EIS measurements were done in a 3 electrode cell containing Ag/AgCl (3 M NaCl, 0.209 V vs. SHE) reference electrode, coiled platinum wire as a counter electrode and the gold disk as a working electrode at a fixed voltage of −0.7 using PalmSens potentiostat. Degassed PBS was used as an electrolyte.
EIS measurements were performed on gold electrodes functionalised with OrX liposomes (either Or10a or Or22a), OrX/Orco liposomes, or empty liposomes prior to and after target ligand or control ligand incubation with increasing concentrations (1 aM to 100 μM). Dose response curves were obtained by defining sensor response as −(ΔRp/R^op) versus log[C(Ligand)]. FIG. 4a presents the EIS response in terms of Nyquist plot for the Or10a liposome functionalized sensors when exposed to a solution containing one of the known target ligands of Or10a, methyl salicylate, at various concentrations. […] The dose response curve (FIG. 4b) was obtained by plotting the change in polarization resistance −(ΔRp/R^op) versus log[conc(Ligand)], as the sensor response. Here, Rp is the polarization resistance after Or10a liposome-target interaction and R^op is the polarization resistance before Or10a liposome-target interaction.

Compound	sensor response to control ligand (EIS dose response)	limit of detection (LOD) (EIS dose response, ligand 1 aM to 100 μM)	EC50 (Table 1, approximate)	Sensitivity limit (Table 1, * estimated visually from dose response graph)	Detection Range (Table 3)	EC50 (Table 3, fitted dose response)
COC(=O)c1ccccc1O [methyl salicylate]	negligible response					
CCCCCC(=O)OC [methyl hexanoate]		1 fM	~1 pM	~10^−15 M*	10^−15 to 10^−5 M	1.1 pM
